Consider 28 molecules from patent US8741897B2, “Glucocorticoid mimetics, methods of making them, pharmaceutical compositions and uses thereof” (Boehringer Ingelheim Pharmaceuticals Inc., priority 2003, dated 2014).

For this test, the system named is glucocorticoid receptor function. The test can be described thus: one or more of the above assays (GR binding and glucocorticoid receptor cell assays: aromatase, IL-6, TAT, MMTV-Luc, IL-8, ICAM-Luc). It is filed as cell-based. The following applies: assay not specified per compound.

The structures appear in SMILES notation.

`Cc1ccc(F)cc1C(C)(C)CC(O)(Cc1cc2nc(CN3CCOCC3)ccc2[nH]1)C(F)(F)F` (stereo not shown) [1,1,1-Trifluoro-4-(5-fluoro-2-methylphenyl)-4-methyl-2-(5-morpholin-4-ylmethyl-1H-pyrrolo[3,2-b]pyridin-2-ylmethyl)pentan-2-ol]: the “activity as agonists of the glucocorticoid receptor function in one or more of the above assays” value (“activity as agonists” below) is given as “potent agonists”.

With `COc1ccc(F)cc1C(C)(C)CC(O)(Cc1cc2nc(C(C)C)ncc2[nH]1)C(F)(F)F` (stereo not shown) [1,1,1-Trifluoro-4-(5-fluoro-2-methoxyphenyl)-2-(2-isopropyl-5H-pyrrolo[3,2-d]pyrimidin-6-ylmethyl)-4-methylpentan-2-ol], the “activity as agonists” value is recorded as “potent agonists”.

Turning to `COc1ccc(-c2ccccc2C#N)cc1C(C)(C)CC(O)(Cc1cc2cc(N3CCOCC3)ncc2[nH]1)C(F)(F)F` (stereo not shown) [4′-Methoxy-3′-[4,4,4-trifluoro-3-hydroxy-1,1-dimethyl-3-(5-morpholin-4-yl-1 H-pyrrolo[2,3-c]pyridin-2-ylmethyl)butyl]biphenyl-2-carbonitrile], the “activity as agonists” value is reported as “potent agonists”.

Consider `CC(C)(CC(O)(Cc1cc2nc(CN)ccc2[nH]1)C(F)(F)F)c1cc(Cl)cc2c1OCC2` (stereo not shown) [2-(5-Aminomethyl-1H-pyrrolo[3,2-b]pyridin-2-ylmethyl)-4-(5-chloro-2,3-dihydrobenzofuran-7-yl)-1,1,1-trifluoro-4-methylpentan-2-ol], for which the “activity as agonists” value is on record as “potent agonists”.

In the case of `Cc1ccc(F)cc1C(C)(C)CC(O)(Cc1cc2cc(N(C)C(C)C)ncc2[nH]1)C(F)(F)F` (stereo not shown) [1,1,1-Trifluoro-4-(5-fluoro-2-methylphenyl)-2-[5-(isopropylmethylamino)-1H-pyrrolo[2,3-c]pyridin-2-ylmethyl]-4-methylpentan-2-ol], the “activity as agonists” value was “potent agonists”.

For `CN(C)Cc1c(CC(O)(CC(C)(C)c2cc(F)ccc2O)C(F)(F)F)[nH]c2ccncc12` (stereo not shown), the “activity as agonists” value is “potent agonists”.

Consider `CC(C)(CC(O)(Cc1cc2cc(N3CCOCC3)ncc2[nH]1)C(F)(F)F)c1cc(-c2ccccc2C#N)ccc1O` (stereo not shown) [4′-Hydroxy-3′-[4,4,4-trifluoro-3-hydroxy-1,1-dimethyl-3-(5-morpholin-4-yl-1H-pyrrolo[2,3-c]pyridin-2-ylmethyl)butyl]biphenyl-2-carbonitrile], for which the “activity as agonists” value was “potent agonists”.

For the molecule `COc1ccc(-c2ccccc2)cc1C(C)(C)CC(O)(Cc1cc2cc(N3CCCCC3)ncc2[nH]1)C(F)(F)F` (stereo not shown) [1,1,1-Trifluoro-4-(4-methoxybiphenyl-3-yl)-4-methyl-2-(5-piperidin-1-yl-1H-pyrrolo[2,3-c]pyridin-2-ylmethyl)pentan-2-ol], the “activity as agonists” value is given as “potent agonists”.

Take `CC(C)(CC(O)(Cc1cc2ccc(C#N)cc2[nH]1)C(F)(F)F)c1cc(S(C)(=O)=O)cc2c1OCC2` (stereo not shown) [2-[2-Hydroxy-4-(5-methanesulfonyl-2,3-dihydrobenzofuran-7-yl)-4-methyl-2-trifluoromethylpentyl]-1H-indole-6-carbonitrile]: the “activity as agonists” value is “potent agonists”.

In the case of `COc1ccc(-c2cncnc2)cc1C(C)(C)CC(O)(Cn1ccc2c1CCCC2=O)C(F)(F)F` (stereo not shown) [1-[2-Hydroxy-4-(2-methoxy-5-pyrimidin-5-ylphenyl)-4-methyl-2-trifluoromethylpentyl]-1,5,6,7-tetrahydroindol-4-one], the “activity as agonists” value is on record as “agonists”.

`Cc1ccc(F)cc1C(C)(C)CC(O)(Cc1cc2[nH]c(=O)ccc2[nH]1)C(F)(F)F` (stereo not shown) [2-[4-(5-Fluoro-2-methylphenyl)-2-hydroxy-4-methyl-2-trifluoromethylpentyl]-1,4-dihydropyrrolo[3,2-b]pyridin-5-one]: the “activity as agonists” value is “potent agonists”.

Regarding `CC(C)(CC(O)(Cc1cc2nc(-c3ccccc3)ncc2[nH]1)C(F)(F)F)c1ccccc1` (stereo not shown) [1,1,1-Trifluoro-4-methyl-4-phenyl-2-(2-phenyl-5H-pyrrolo[3,2-d]pyrimidin-6-ylmethyl)pentan-2-ol], the “activity as agonists” value is “potent agonists”.

As to `CC(C)C(O)(Cc1cc2cc(-c3ccccc3)ncc2[nH]1)CC(C)(C)c1cc(Cl)cc2c1OCC2` (stereo not shown) [5-(5-Chloro-2,3-dihydrobenzofuran-7-yl)-2,5-dimethyl-3-(5-phenyl-1H-pyrrolo[2,3-c]pyridin-2-ylmethyl)hexan-3-ol], the “activity as agonists” value was “agonists”.

On to `Cc1ccc(F)cc1C(C)(C)CC(O)(Cc1cc2cnccc2[nH]1)C(C)(C)C` (stereo not shown) [5-(5-Fluoro-2-methylphenyl)-2,2,5-trimethyl-3-(1H-pyrrolo[3,2-c]pyridin-2-ylmethyl)hexan-3-ol], for which the “activity as agonists” value is recorded as “agonists”.

`Cc1c(CC(O)(CC(C)(C)c2ccc(F)cc2O)C(F)(F)F)[nH]c2cnccc12` (stereo not shown) [5-Fluoro-2-[4,4,4-trifluoro-3-hydroxy-1,1-dimethyl-3-(3-methyl-1H-pyrrolo[2,3-c]pyridin-2-ylmethyl)butyl]phenol]: the “activity as agonists” value is given as “potent agonists”.

Take `Cc1ccc(F)c2[nH]c(CC(O)(CC(C)(C)c3cc(S(C)(=O)=O)cc4c3OCC4)C(F)(F)F)cc12` (stereo not shown) [1,1,1-Trifluoro-2-(7-fluoro-4-methyl-1H-indol-2-ylmethyl)-4-(5-methanesulfonyl-2,3-dihydrobenzofuran-7-yl)-4-methylpentan-2-ol]: the “activity as agonists” value was “potent agonists”.

Turning to `CC(C)(CC(O)(Cc1cc2cnccc2[nH]1)C(F)(F)F)c1cc(S(C)(=O)=O)cc2c1OCC2` (stereo not shown) [1,1,1-Trifluoro4-(5-methanesulfonyl-2,3-dihydrobenzofuran-7-yl)-4-methyl-2-(1H-pyrrolo[3,2-c]pyridin-2-ylmethyl)pentan-2-ol], the “activity as agonists” value is “potent agonists”.

Turning to `CN(C)c1cc2cc(CC(O)(CC(C)(C)c3ccc(F)cc3O)C(F)(F)F)[nH]c2cn1` (stereo not shown) [2-[3-(5-Dimethylamino-1H-pyrrolo[2,3-c]pyridin-2-ylmethyl)-4,4,4-trifluoro-3-hydroxy-1,1-dimethylbutyl]-5-fluorophenol], the “activity as agonists” value is “potent agonists”.

Consider `COc1ccc(-c2cccc3ccccc23)cc1C(C)(C)CC(O)(Cc1cc2cc(N3CCOCC3)ncc2[nH]1)C(F)(F)F` (stereo not shown) [1,1,1-Trifluoro-4-(2-methoxy-5-naphthalen-1-ylphenyl)-4-methyl-2-(5-morpholin-4-yl-1H-pyrrolo[2,3-c]pyridin-2-ylmethyl)pentan-2-ol], for which the “activity as agonists” value is on record as “potent agonists”.

With `CC(C)(CC(O)(Cn1ccc2c1CCCC2=O)C(F)(F)F)c1cccc2c1OCC2` (stereo not shown) [1-[4-(2,3-Dihydrobenzofuran-7-yl)-2-hydroxy-4-methyl-2-trifluoromethylpentyl]-1,5,6,7-tetrahydroindol-4-one], the “activity as agonists” value is on record as “agonists”.

As to `COc1ccc(-c2cncnc2)cc1C(C)(C)CC(O)(Cc1cc2cc(Cl)ncc2[nH]1)C(F)(F)F` (stereo not shown) [2-(5-Chloro-1H-pyrrolo[2,3-c]pyridin-2-ylmethyl)-1,1,1-trifluoro-4-(2-methoxy-5-pyrimidin-5-ylphenyl)-4-methylpentan-2-ol], the “activity as agonists” value is recorded as “potent agonists”.

With `COc1ccc(F)cc1C(C)(C)CC(O)(Cn1ccc2c1CCCC2=O)C(F)(F)F` (stereo not shown) [1-[4-(5-Fluoro-2-methoxyphenyl)-2-hydroxy-4-methyl-2-trifluoromethylpentyl]-1,5,6,7-tetrahydroindol-4-one], the “activity as agonists” value is given as “agonists”.

On to `Cc1ccc(F)cc1C(C)(C)CC(O)(Cc1cc2nc(-c3ccccc3)ncc2[nH]1)C(F)(F)F` (stereo not shown) [1,1,1-Trifluoro-4-(5-fluoro-2-methylphenyl)-4-methyl-2-(2-phenyl-5H-pyrrolo[3,2-d]pyrimidin-6-ylmethyl)pentan-2-ol], for which the “activity as agonists” value was “potent agonists”.

For the molecule `Cc1cncc2[nH]c(CC(O)(CC(C)(C)c3ccc(F)cc3O)C(F)(F)F)cc12` (stereo not shown) [5-Fluoro-2-[4,4,4-trifluoro-3-hydroxy-1,1-dimethyl-3-(4-methyl-1H-pyrrolo[2,3-c]pyridin-2-ylmethyl)butyl]phenol], the “activity as agonists” value is recorded as “potent agonists”.

As for `CC(C)(CC(O)(Cc1cc2cc(N3CCOCC3)ncc2[nH]1)C(F)(F)F)c1ccc(F)cc1` (stereo not shown) [1,1,1-Trifluoro-4-(4-fluorophenyl)-4-methyl-2-(5-morpholin-4-yl-1H-pyrrolo[2,3-c]pyridin-2-ylmethyl)pentan-2-ol], the “activity as agonists” value is on record as “potent agonists”.

For the molecule `COc1ccc(-c2ccccc2C#N)cc1C(C)(C)CC(O)(Cc1cc2cc(N3CCCCC3)ncc2[nH]1)C(F)(F)F` (stereo not shown) [4′-Methoxy-3′-[4,4,4-trifluoro-3-hydroxy-1,1-dimethyl-3-(5-piperidin-1-yl-1H-pyrrolo[2,3-c]pyridin-2-ylmethyl)butyl]biphenyl-2-carbonitrile], the “activity as agonists” value is “potent agonists”.

`CCOc1cc2cc(CC(O)(CC(C)(C)c3cc(F)ccc3C)C(F)(F)F)[nH]c2cn1` (stereo not shown) [2-(5-Ethoxy-1H-pyrrolo[2,3-c]pyridin-2-ylmethyl)-1,1,1-trifluoro-4-(5-fluoro-2-methylphenyl)-4-methylpentan-2-ol]: the “activity as agonists” value was “potent agonists”.

In the case of `COc1ccc(F)cc1C(C)(C)CC(O)(Cc1cc2cc(N3CCOCC3)ncc2[nH]1)C(F)(F)F` (stereo not shown) [1,1,1-Trifluoro-4-(5-fluoro-2-methoxyphenyl)-4-methyl-2-(5-morpholin-4-yl-1H-pyrrolo[2,3-c]pyridin-2-ylmethyl)pentan-2-ol], the “activity as agonists” value is given as “potent agonists”.
